Literature values in US9662296B2, “Pharmaceutical composition comprising bicarbonate salt, and use thereof as a medicament in the treatment and/or prevention of urinary lithiases and related diseases” (ADVICENNE, priority 2010, dated 2017).

Details: high doses (30 to 40 grams per day)

Structure (SMILES)	adverse manifestations
O=C([O-])O.[K+] [potassium bicarbonate]	manifestations of metabolic alkalosis or digestive disorders, mainly diarrhoea
O=C([O-])O.[Na+] [sodium bicarbonate]	manifestations of metabolic alkalosis or digestive disorders, mainly diarrhoea
